Columns and labels:
[1] = molecular target: T1, recombinant human DHODH (Homo sapiens, UniProt Q02127); assay: Inhibition assay of DHODH activity (human enzyme); type: biochemical
T1 construct: provided by Prof; M. Löffler, Marburg, Germany (gift, not purchased)
Method: (§1) The standard assay mixture contained 50 μM decyclo ubichinone, 100 μM dihydroorotate, 60 μM 2,6-dichloroindophenol, as well as 20 mU DHODH. The volume activity of the recombinant enzyme used was 30 U/ml. Measurements were conducted in 50 mM TrisHCl (150 mM KCl, 0,1% Triton X-100, pH. 8,0) at 30° C. in a final volume of 1 ml. The components were mixed, and the reaction was started by adding dihydroorotate. The course of reaction was followed by spectrophotometrically measuring the decrease in absorption at 600 nm for 2 min.
(§2) Inhibitory studies were conducted in a standard assay with additional variable amounts of inhibitor.
(§3) These investigations were carried out with recombinant human as well as with recombinant murine DHODH provided by Prof. M. Löffler, Marburg, Germany [M. Löffler, Chem. Biol. Interact.

[2] = tested on: human lymphocyte cell proliferation; assay: Proliferation Assay of Human T-Cells; type: cell-based; settings: 100 μM, activated human MNC, 48 hours
Method: Buffy coats of healthy donors were obtained from the local Red Cross; from these human mononuclear cells (MNC) were isolated using Accuspin™ System-Histopaque-1077 (Sigma) according to the protocol recommended by the manufacturer. Cells were seeded at densities of 5×10^4 or 1×10^5 cells per well in 96 well flat bottom plates in RPMI 1640 supplemented with 10% fetal calf serum, 2 mM L-glutamine and penicillin/streptomycin. Cells were activated with 1 μg/ml phytohaemagglutinin (PHA, Sigma) or 20 nM PMA (phorbol-12-myristate-13-acetate)/10 μM ionomycin (Calbiochem) and incubated with the test compounds in a final volume of 100 μl for 48 hours. Proliferation was measured using the CellTiter 96® Aqueous One Solution Cell Proliferation Assay (Promega) according to the lymphocyte assay protocol supplied by the manufacturer.

[3] = molecular target: T2, recombinant murine DHODH (Mus musculus, UniProt O35435); assay: Inhibition assay of DHODH activity (murine enzyme); type: biochemical; settings: numeric values or words
T2 construct: provided by Prof; M. Löffler, Marburg, Germany (gift, not purchased)
Method: as §1, §2, §3

T2 sequence (O35435 whole entry): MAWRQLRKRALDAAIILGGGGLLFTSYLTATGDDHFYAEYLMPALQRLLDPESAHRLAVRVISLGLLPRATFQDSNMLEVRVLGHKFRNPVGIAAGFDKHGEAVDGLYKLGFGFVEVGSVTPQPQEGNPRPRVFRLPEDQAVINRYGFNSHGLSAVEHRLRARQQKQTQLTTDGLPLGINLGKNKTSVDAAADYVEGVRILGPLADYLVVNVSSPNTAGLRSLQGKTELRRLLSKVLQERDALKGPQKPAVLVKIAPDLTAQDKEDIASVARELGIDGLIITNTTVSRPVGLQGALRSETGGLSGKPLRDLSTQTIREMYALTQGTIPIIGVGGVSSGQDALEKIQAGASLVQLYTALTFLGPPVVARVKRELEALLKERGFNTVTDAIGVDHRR
T1 sequence (Q02127 whole entry): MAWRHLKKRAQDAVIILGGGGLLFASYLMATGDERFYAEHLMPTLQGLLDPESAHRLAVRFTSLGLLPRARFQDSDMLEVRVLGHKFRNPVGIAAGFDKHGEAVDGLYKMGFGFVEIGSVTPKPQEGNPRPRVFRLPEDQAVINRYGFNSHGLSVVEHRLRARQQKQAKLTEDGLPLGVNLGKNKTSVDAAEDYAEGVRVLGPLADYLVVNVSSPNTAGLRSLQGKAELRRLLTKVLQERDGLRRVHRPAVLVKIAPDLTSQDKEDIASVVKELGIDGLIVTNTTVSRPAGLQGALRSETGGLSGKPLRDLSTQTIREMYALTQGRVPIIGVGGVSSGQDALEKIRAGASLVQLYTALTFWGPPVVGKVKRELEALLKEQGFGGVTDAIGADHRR

Structure (SMILES): O=C(O)C1=C(C(=O)Nc2ccc(-c3ccccc3)cc2)CCC1 [Compound 02, 2-(Biphenyl-4-ylcarbamoyl)-cyclopent-1-enecarboxylic acid]
- IC50 [1]: 690 nM
- reduction of human lymphocyte cell proliferation [2]: 40%
- IC50 [3]: 4000 nM

From US20060199856A1, “Novel compounds as anti-inflammatory, immunomodulatory and anti-proliferatory agents” (4 SC AG, priority 2001, published 2006)
